In PubChem BioAssay (NCI) one finds GI50 and TGI data, which are given here for 14 compounds.

Among the test systems are UACC-62 melanoma; SNB-75 CNS; U251 CNS; MOLT-4 leukemia; HT29 colon; NCI-H23 lung; RPMI-8226 leukemia; EKVX NSCLC; RXF 393 renal; CCRF-CEM leukemia.
What all share (assay): NCI anticancer screen, dose series, 48 h

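Test compounds were applied to cells in 96-well plates for 48 hours at 5 doses. At the GI50, growth is halved. Definition used: TGI = concentration required for complete inhibition of growth.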

Take `C=C(CN1CCN(c2ccc(F)c(Cl)c2)CC1)c1ccc(C(=O)Nc2ccccc2N)cc1`: the GI50 was 5.24 µM in the assay on UACC-62 melanoma; > 100 µM in the assay with SNB-75 CNS; 4.42 µM with U251 CNS; 0.764 µM in the assay with MOLT-4 leukemia; 2.32 µM with HT29 colon; 5.27 µM in the assay with NCI-H23 lung. Moreover, the GI50 in the assay on RPMI-8226 leukemia is 1.46 µM; in the assay with EKVX NSCLC it was 15.8 µM; in the assay on RXF 393 renal, 3.84 µM. For the same compound, the TGI in the assay on UACC-62 melanoma is 54.3 µM; with SNB-75 CNS it was > 100 µM; in the assay with U251 CNS, 23.7 µM; in the assay with MOLT-4 leukemia, 4 µM; in the assay on HT29 colon, > 100 µM; in the assay with NCI-H23 lung, 29.7 µM. The values for the TGI in the assay with RPMI-8226 leukemia, in the assay with EKVX NSCLC and in the assay with RXF 393 renal were 5.1 µM, > 100 µM and 39.2 µM, respectively.

With `COC(=O)C#CC(N)=O`, the TGI with UACC-62 melanoma was > 100 µM; in the assay with SNB-75 CNS, > 100 µM; in the assay on U251 CNS, > 100 µM; in the assay on MOLT-4 leukemia, 62.6 µM; in the assay on HT29 colon, > 100 µM; in the assay on NCI-H23 lung, > 100 µM. Besides, the TGI is > 100 µM in the assay with EKVX NSCLC, > 100 µM in the assay on RXF 393 renal and 36.4 µM with CCRF-CEM leukemia.

In the case of `CCCCCC/C(CC(=O)CCC(=O)NCCc1ccccc1)=N\Nc1ccc([N+](=O)[O-])cc1[N+](=O)[O-]`, the TGI was > 100 µM in the assay on UACC-62 melanoma; > 100 µM with U251 CNS; 60.3 µM in the assay with MOLT-4 leukemia; > 100 µM with HT29 colon; > 100 µM in the assay on NCI-H23 lung; 81.7 µM in the assay with RPMI-8226 leukemia. Moreover, the TGI was > 100 µM with EKVX NSCLC, > 100 µM in the assay on RXF 393 renal and 60.6 µM in the assay with CCRF-CEM leukemia.

In the case of `C/C(=N\Nc1n[nH]c(=S)n1N)c1c(O)cc(C)oc1=O`, the TGI in the assay on UACC-62 melanoma, with SNB-75 CNS, with U251 CNS, in the assay on MOLT-4 leukemia, in the assay with HT29 colon and with NCI-H23 lung was > 100 µM each time. Moreover, the TGI with EKVX NSCLC and with CCRF-CEM leukemia was > 100 µM in each case.

Consider `CCOC(=O)C(=O)Nc1nc2ccc(C)cc2s1`, for which the TGI with UACC-62 melanoma, in the assay with SNB-75 CNS, in the assay on U251 CNS, in the assay with MOLT-4 leukemia, in the assay with HT29 colon and in the assay on NCI-H23 lung was > 100 µM each time. In addition, the TGI in the assay on RPMI-8226 leukemia, in the assay on EKVX NSCLC and with CCRF-CEM leukemia was > 100 µM each time.

As for `Cc1cc2nc(-c3ccc(O)c(O)c3)n(Cc3ccc(O)c(O)c3)c2cc1C`, the GI50 is 19 µM in the assay with UACC-62 melanoma; 5 µM in the assay on U251 CNS; 4.4 µM with MOLT-4 leukemia; 45.1 µM with HT29 colon; 35.1 µM in the assay with NCI-H23 lung; 79.9 µM in the assay with EKVX NSCLC. Also, the GI50 with RXF 393 renal is 21.2 µM; with CCRF-CEM leukemia it was 4.23 µM. For the same compound, the TGI is 41.1 µM in the assay on UACC-62 melanoma; > 100 µM in the assay on U251 CNS; 28.6 µM with MOLT-4 leukemia; > 100 µM in the assay with HT29 colon; > 100 µM with NCI-H23 lung; > 100 µM in the assay on EKVX NSCLC. The TGI in the assay with RXF 393 renal was > 100 µM; in the assay on CCRF-CEM leukemia, 25.5 µM.

Turning to `C=C1C(=O)OC2(C)CCC1CC1OC1(C)CCC=C(C)CCC2O` (stereo not drawn), the TGI in the assay on UACC-62 melanoma, in the assay with SNB-75 CNS, in the assay with U251 CNS, in the assay on MOLT-4 leukemia, in the assay with HT29 colon and in the assay with NCI-H23 lung was > 100 µM each time. For the same compound, the TGI in the assay with RPMI-8226 leukemia, in the assay on EKVX NSCLC and in the assay on CCRF-CEM leukemia was > 100 µM in each case.

As for `COc1ccc(/C=C2/CSC/C(=C/c3ccc(OC)c(OC)c3)C2=O)cc1OC`, the TGI in the assay with UACC-62 melanoma is 3.32 µM; in the assay with SNB-75 CNS, > 100 µM; in the assay with U251 CNS, 2.72 µM; in the assay on MOLT-4 leukemia it was > 20.9 µM; with HT29 colon, 2.7 µM; with NCI-H23 lung, 6.13 µM. The TGI in the assay on EKVX NSCLC was 42.8 µM; in the assay with RXF 393 renal it was 8.62 µM.

On to `CCN1CCC(O)(/C=C/c2ccccc2)C(C(=O)/C=C/c2ccccc2)C1` (stereo not drawn), for which the TGI came to 3.49 µM with UACC-62 melanoma; 19.2 µM in the assay with SNB-75 CNS; 6.67 µM in the assay with U251 CNS; 5.38 µM in the assay with MOLT-4 leukemia; 3.73 µM in the assay with HT29 colon; 10.3 µM in the assay on NCI-H23 lung. In addition, the TGI with EKVX NSCLC is 11.8 µM; with RXF 393 renal, 3.24 µM.

Consider `N#CC(C#N)C(c1ccccc1)c1ccccc1`, for which the TGI with UACC-62 melanoma, in the assay on U251 CNS, in the assay with MOLT-4 leukemia, in the assay on RPMI-8226 leukemia, in the assay with RXF 393 renal and with CCRF-CEM leukemia was > 100 µM each time.

In the case of `C[C@H]1CC[C@@H]2[C@@H](C)[C@H]3[C@H](C[C@H]4[C@@H]5CC=C6C[C@@H](O)CC[C@]6(C)[C@H]5CC[C@]34C)N2C1`, the TGI with UACC-62 melanoma is > 100 µM; with U251 CNS, > 100 µM; in the assay on MOLT-4 leukemia, > 100 µM; in the assay on HT29 colon, 43 µM; with NCI-H23 lung it was > 100 µM; in the assay on RPMI-8226 leukemia it was > 100 µM. The values for the TGI in the assay with EKVX NSCLC, with RXF 393 renal and in the assay on CCRF-CEM leukemia were > 100 µM, 46.1 µM and > 100 µM, respectively.

On to `COC(=O)[C@@H](C)C[C@H](Cc1ccccc1)NC(=O)c1csc([C@@H](C[C@H](C(C)C)N(C)C(=O)[C@@H](NC(=O)[C@H]2CCCCN2C)C(C(F)(F)F)C(F)(F)F)OC(C)=O)n1`, for which the GI50 with UACC-62 melanoma was 0.0154 µM; in the assay on U251 CNS, 0.0655 µM; with MOLT-4 leukemia, 0.0631 µM; in the assay on HT29 colon, 0.0495 µM; with NCI-H23 lung, 0.0624 µM; with RPMI-8226 leukemia, 0.059 µM. For the same compound, the figures for the GI50 in the assay with EKVX NSCLC and in the assay with CCRF-CEM leukemia were 0.102 µM and 0.0539 µM, respectively. Also, the TGI was > 16.7 µM in the assay with UACC-62 melanoma; > 16.7 µM in the assay on U251 CNS; > 16.7 µM with MOLT-4 leukemia; 0.256 µM in the assay on HT29 colon; > 16.7 µM with NCI-H23 lung; 3.22 µM in the assay on RPMI-8226 leukemia. Moreover, the TGI was > 16.7 µM in the assay with EKVX NSCLC and 9.05 µM with CCRF-CEM leukemia.

For the compound `N/C(CC(=O)NOC(=O)c1ccccc1)=N/OC(=O)c1ccccc1`, the TGI in the assay with UACC-62 melanoma was > 100 µM; in the assay on U251 CNS, > 100 µM; in the assay with MOLT-4 leukemia, 75.9 µM; in the assay with HT29 colon it was > 100 µM; with NCI-H23 lung, > 100 µM; with RPMI-8226 leukemia it was > 100 µM. For the same compound, the TGI with EKVX NSCLC is 77.5 µM; in the assay on RXF 393 renal it was 60.6 µM; with CCRF-CEM leukemia it was > 100 µM.

As for `Nc1ccn(C2CC3OCC3O2)c(=O)n1` (stereo not drawn), the TGI in the assay with UACC-62 melanoma, in the assay with SNB-75 CNS, with U251 CNS, with MOLT-4 leukemia, in the assay on HT29 colon and with NCI-H23 lung was > 100 µM in each case. In addition, the TGI in the assay on RPMI-8226 leukemia, with EKVX NSCLC and with CCRF-CEM leukemia was > 100 µM throughout.
